In ChEMBL document CHEMBL4002567, “Rational design and synthesis of 1,5-disubstituted tetrazoles as potent inhibitors of the MDM2-p53 interaction” (Eur J Med Chem, 2017) one finds Ki data, which are given here for 3 compounds.

Test [1] addresses E3 ubiquitin-protein ligase Mdm2 (Homo sapiens, UniProt Q00987).
Test [2] concerns the target T1, Protein Mdm4 (Homo sapiens, UniProt O15151).
T1 sequence (O15151 whole entry): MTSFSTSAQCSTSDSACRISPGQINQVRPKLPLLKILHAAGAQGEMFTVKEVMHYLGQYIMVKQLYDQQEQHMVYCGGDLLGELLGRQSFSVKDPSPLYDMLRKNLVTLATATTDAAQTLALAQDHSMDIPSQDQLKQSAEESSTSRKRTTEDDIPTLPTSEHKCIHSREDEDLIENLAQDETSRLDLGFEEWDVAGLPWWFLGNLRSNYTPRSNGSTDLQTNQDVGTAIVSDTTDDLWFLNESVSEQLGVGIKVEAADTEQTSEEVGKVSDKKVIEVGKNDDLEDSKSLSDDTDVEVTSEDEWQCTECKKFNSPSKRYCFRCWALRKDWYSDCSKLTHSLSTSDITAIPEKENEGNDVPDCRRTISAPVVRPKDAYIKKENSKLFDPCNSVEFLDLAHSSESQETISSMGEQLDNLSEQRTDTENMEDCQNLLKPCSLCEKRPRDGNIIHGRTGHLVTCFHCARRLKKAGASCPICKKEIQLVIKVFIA

Structures are written as SMILES.

Sequence of E3 ubiquitin-protein ligase Mdm2 (Q00987 whole entry): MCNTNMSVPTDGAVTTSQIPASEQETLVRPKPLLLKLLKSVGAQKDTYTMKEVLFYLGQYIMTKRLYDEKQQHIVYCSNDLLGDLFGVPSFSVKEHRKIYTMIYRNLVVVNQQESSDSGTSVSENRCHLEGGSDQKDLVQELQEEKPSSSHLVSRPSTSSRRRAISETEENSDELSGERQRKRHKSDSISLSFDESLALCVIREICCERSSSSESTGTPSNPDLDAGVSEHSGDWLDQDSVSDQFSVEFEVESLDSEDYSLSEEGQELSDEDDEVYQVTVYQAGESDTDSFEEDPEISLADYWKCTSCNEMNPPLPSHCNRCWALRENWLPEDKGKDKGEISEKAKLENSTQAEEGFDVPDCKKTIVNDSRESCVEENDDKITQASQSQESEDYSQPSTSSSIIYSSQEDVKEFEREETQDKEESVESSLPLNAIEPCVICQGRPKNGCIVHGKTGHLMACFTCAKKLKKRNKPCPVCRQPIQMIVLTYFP

Turning to `CCOC(=O)c1[nH]c2cc(Cl)ccc2c1C(NCc1ccc(Cl)cc1)c1nnnn1Cc1ccc(Cl)cc1` (stereo unspecified), the Ki result in test [1] and in test [2] was “Not Active” in each case.

Consider `CCOC(=O)c1[nH]c2cc(Cl)ccc2c1C(NCC1CCCCC1)c1nnnn1Cc1ccc(OCc2ccccc2Cl)cc1` (stereo unspecified), for which the Ki result in test [1] and in test [2] was “Not Active” throughout.

For the compound `CCCCCNC(c1c(C(=O)OCC)[nH]c2cc(Cl)ccc12)c1nnnn1-c1ccc(C(C)C)cc1` (stereo unspecified), the Ki result in test [1] and in test [2] was “Not Active” in each case.
